Experimental data taken from US10100097B2, “GIP-GLP-1 dual agonist compounds and methods” (Zealand Pharma A/S, priority 2012, dated 2018).
Numbered stars: 1 amine (or outer) side, 2 acyl side, 3 side chain; on linkers, the order of the positions; unused ones are H or OH. Square brackets hold non-standard residues; d marks the D form. Side chains are listed from the residue outwards. Peptide text beside a SMILES is read from it. * marks the point of attachment. C16 diacid = O=C(O)CCCCCCCCCCCCCCC(=O)*; γGlu = O=C(O)[C@H](CCC(=O)[*:2])N[*:1]; Palmitoyl = CCCCCCCCCCCCCCCC(=O)*; Aib = CC(C)(N)C(=O)O

Tests used:
human GLP-1 R = biological target: T1, human GLP-1 R (Homo sapiens, UniProt P43220); experiment: Human GLP-1 receptor (GLP-1 R) activity assay, cAMP induction (AlphaScreen cAMP kit); assay type: cell-based; details: HEK293 cells expressing the human GLP-1 R, 15 min at 37° C., average values of multiple determinations, read-out: GLP1 R (EC50 in nM)
T1 construct: expressed in transfected cells
Procedure, shortened: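 Stable HEK293 clones expressing human GIP R or GLP-1 R, grown 1 day, washed in Tyrode's buffer (10 mM HEPES, pH 7.4), then stimulated with peptide. Cells lysed and cAMP quantified by AlphaScreen competition with biotinylated cAMP, 1 h dark incubation at room temperature.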

human GIP R = biological target: T2, human GIP R (Homo sapiens, UniProt P48546); experiment: Human GIP receptor (GIP R) activity assay, cAMP induction (AlphaScreen cAMP kit); assay type: cell-based; details: HEK293 cells expressing the human GIP R; cAMP induction, 15 min at 37° C.; average values of multiple determinations; read-out: GIP R (EC50 in nM)
T2 construct: expressed in transfected cells
T2 sequence (P48546 22-466): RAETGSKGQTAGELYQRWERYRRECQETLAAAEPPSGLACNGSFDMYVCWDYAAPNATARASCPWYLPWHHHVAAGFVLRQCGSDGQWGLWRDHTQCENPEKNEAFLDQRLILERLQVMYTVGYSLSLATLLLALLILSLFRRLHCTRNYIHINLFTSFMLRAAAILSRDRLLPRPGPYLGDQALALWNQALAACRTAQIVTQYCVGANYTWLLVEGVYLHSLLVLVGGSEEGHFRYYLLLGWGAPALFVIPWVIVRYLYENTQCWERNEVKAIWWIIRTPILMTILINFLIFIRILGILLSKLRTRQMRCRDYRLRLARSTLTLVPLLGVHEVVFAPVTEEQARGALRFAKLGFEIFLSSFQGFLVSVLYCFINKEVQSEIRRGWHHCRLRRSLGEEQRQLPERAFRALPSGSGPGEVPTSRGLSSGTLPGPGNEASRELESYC
Procedure: Human GIP Receptor (GIP R) and GLP-1 Receptor (GLP-1 R) Activity Assay
In vitro effects of peptide conjugates of the invention were assessed by measuring the induction of cAMP following stimulation of the respective receptor by GIP, GLP1 or analogues of these, as outlined in the invention, using the AlphaSceen® cAMP kit from Perkin-Elmer according to instructions. Briefly. HEK293 cells expressing the human GIP R or GLP-1 R (stable cell lines generated through transfection of the cDNA for human GIP R or GLP-1 and selection of stable clones) were seeded at 30,000 cells/well in 96-well microtiter plates coated with 0.01% poly-L-lysine, and grown for 1 day in culture in 200 μl growth medium (DMEM, 10% FCS, Penicillin (100 IU/ml), Streptomycin (100 μg/ml)). On the day of analysis, growth medium was removed and the cells were washed once with […] Tyrode's buffer (Tyrode's Salts (9.6 g/1), 10 mM HEPES, pH 7.4). […] The Assay buffer was removed and cells are lysed in 80 μl Lysis buffer (0.1% w/v BSA, 5 mM HEPES, 0.3% v/v Tween-20) per well. From each well 10 μl lysed cells was transferred to a 384-well plate and mixed with 15 μl bead-mix (1 Unit/15 μl anti-cAMP Acceptor Beads, 1 Unit/15 μl Donor Beads, and 1 Unit/15 μl Biotinylated cAMP in Assay Buffer). The plates were mixed and incubated in the dark for an hour at room temperature before measuring using an Envision™ plate reader (Perkin-Elmer).

T1 sequence (P43220 24-463): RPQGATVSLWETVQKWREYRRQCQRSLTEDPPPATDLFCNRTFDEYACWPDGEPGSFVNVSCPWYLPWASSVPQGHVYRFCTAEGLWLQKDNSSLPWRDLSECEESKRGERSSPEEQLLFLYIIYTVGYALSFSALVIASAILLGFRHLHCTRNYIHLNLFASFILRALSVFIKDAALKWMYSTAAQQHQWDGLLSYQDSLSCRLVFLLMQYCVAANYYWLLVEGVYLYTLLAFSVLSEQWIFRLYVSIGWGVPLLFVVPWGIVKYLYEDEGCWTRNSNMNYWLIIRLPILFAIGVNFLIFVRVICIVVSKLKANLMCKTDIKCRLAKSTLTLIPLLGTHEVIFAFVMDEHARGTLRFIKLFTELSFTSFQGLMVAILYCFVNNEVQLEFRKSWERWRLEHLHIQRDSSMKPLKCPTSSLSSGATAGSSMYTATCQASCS

Row | Compound | EC50 (human GLP-1 R) [nM] | EC50 (human GIP R) [nM]
1 | CC[C@H](C)[C@H](NC(=O)[C@H](CCCCN)NC(=O)[C@H](CC(=O)O)NC(=O)[C@H](CC(C)C)NC(=O)[C@H](C)NC(=O)[C@@H](NC(=O)[C@H](CO)NC(=O)[C@H](Cc1ccc(O)cc1)NC(=O)[C@H](CC(=O)O)NC(=O)[C@H](CO)NC(=O)[C@@H](NC(=O)[C@H](Cc1ccccc1)NC(=O)[C@@H](NC(=O)CNC(=O)[C@H](CCC(=O)O)NC(=O)C(C)(C)NC(=O)[C@@H](N)Cc1ccc(O)cc1)[C@@H](C)O)[C@@H](C)O)[C@@H](C)CC)C(=O)N[C@@H](C)C(=O)N[C@@H](CCC(N)=O)C(=O)N[C@@H](CCCNC(=N)N)C(=O)N[C@@H](C)C(=O)N[C@@H](Cc1ccccc1)C(=O)N[C@H](C(=O)N[C@@H](CC(N)=O)C(=O)N[C@@H](Cc1c[nH]c2ccccc12)C(=O)N[C@@H](CC(C)C)C(=O)N[C@H](C(=O)N[C@@H](C)C(=O)NC(C)(C)C(=O)N[C@@H](CCCCN)C(N)=O)C(C)C)C(C)C [Compound 3] (H-Y[Aib]EGTFTSDYSIALDKIAQRAFVNWLVA[Aib]K-NH2) | 0.022 | 0.015
2 | CC[C@H](C)[C@H](NC(=O)[C@H](CO)NC(=O)[C@H](Cc1ccc(O)cc1)NC(=O)[C@H](CC(=O)O)NC(=O)[C@H](CO)NC(=O)[C@@H](NC(=O)[C@H](Cc1ccccc1)NC(=O)[C@@H](NC(=O)CNC(=O)[C@H](CCC(=O)O)NC(=O)C(C)(C)NC(=O)[C@@H](N)Cc1ccc(O)cc1)[C@@H](C)O)[C@@H](C)O)C(=O)N[C@@H](Cc1ccc(O)cc1)C(=O)N[C@@H](CC(C)C)C(=O)N[C@@H](CC(=O)O)C(=O)N[C@@H](CO)C(=O)N[C@@H](CCCCN)C(=O)N[C@@H](C)C(=O)N[C@@H](CCC(N)=O)C(=O)N[C@@H](CCCNC(=N)N)C(=O)N[C@@H](C)C(=O)N[C@@H](Cc1ccccc1)C(=O)N[C@H](C(=O)N[C@@H](CC(N)=O)C(=O)N[C@@H](Cc1c[nH]c2ccccc12)C(=O)N[C@@H](CC(C)C)C(=O)N[C@@H](CC(C)C)C(=O)N[C@@H](C)C(=O)NC(C)(C)C(=O)N[C@@H](CCCCN)C(N)=O)C(C)C [Compound 16] (H-Y[Aib]EGTFTSDYSIYLDSKAQRAFVNWLLA[Aib]K-NH2) | 0.012 | 0.053
3 | CC[C@H](C)[C@H](NC(=O)[C@H](CO)NC(=O)[C@H](Cc1ccc(O)cc1)NC(=O)[C@H](CC(=O)O)NC(=O)[C@H](CO)NC(=O)[C@@H](NC(=O)[C@H](Cc1ccccc1)NC(=O)[C@@H](NC(=O)CNC(=O)[C@H](CCC(=O)O)NC(=O)C(C)(C)NC(=O)[C@@H](N)Cc1ccc(O)cc1)[C@@H](C)O)[C@@H](C)O)C(=O)N[C@@H](Cc1ccc(O)cc1)C(=O)N[C@@H](CC(C)C)C(=O)N[C@@H](CC(=O)O)C(=O)N[C@@H](CCCCN)C(=O)N[C@@H](CCCCN)C(=O)N[C@@H](C)C(=O)N[C@@H](CCC(N)=O)C(=O)N[C@@H](CCCNC(=N)N)C(=O)N[C@@H](C)C(=O)N[C@@H](Cc1ccccc1)C(=O)N[C@H](C(=O)N[C@@H](CC(N)=O)C(=O)N[C@@H](Cc1c[nH]c2ccccc12)C(=O)N[C@@H](CC(C)C)C(=O)N[C@@H](CC(C)C)C(=O)NC(C)(C)C(=O)N[C@@H](CCCCN)C(N)=O)C(C)C [Compound 24] (H-Y[Aib]EGTFTSDYSIYLDKKAQRAFVNWLL[Aib]K-NH2) | – | 0.096
4 | CC[C@H](C)[C@H](NC(=O)[C@H](CO)NC(=O)[C@H](Cc1ccc(O)cc1)NC(=O)[C@H](CC(=O)O)NC(=O)[C@H](CO)NC(=O)[C@@H](NC(=O)[C@H](Cc1ccccc1)NC(=O)[C@@H](NC(=O)CNC(=O)[C@H](CCC(=O)O)NC(=O)C(C)(C)NC(=O)[C@@H](N)Cc1ccc(O)cc1)[C@@H](C)O)[C@@H](C)O)C(=O)N[C@@H](Cc1ccc(O)cc1)C(=O)N[C@@H](CC(C)C)C(=O)N[C@@H](CC(=O)O)C(=O)N[C@@H](CCCCN)C(=O)N[C@@H](CCCCNC(=O)CC[C@H](NC(=O)CCCCCCCCCCCCCCC(=O)O)C(=O)O)C(=O)N[C@@H](C)C(=O)N[C@@H](CCC(N)=O)C(=O)N[C@@H](CCCNC(=N)N)C(=O)N[C@@H](C)C(=O)N[C@@H](Cc1ccccc1)C(=O)N[C@H](C(=O)N[C@@H](CC(N)=O)C(=O)N[C@@H](Cc1c[nH]c2ccccc12)C(=O)N[C@@H](CC(C)C)C(=O)N[C@@H](CC(C)C)C(=O)N[C@@H](C)C(=O)NC(C)(C)C(=O)N[C@@H](CCCCN)C(N)=O)C(C)C [Compound 31] (H-Y[Aib]EGTFTSDYSIYLDKK([γGlu-C16 diacid])AQRAFVNWLLA[Aib]K-NH2) | – | 0.022
5 | CC[C@H](C)[C@H](NC(=O)[C@H](CO)NC(=O)[C@H](Cc1ccc(O)cc1)NC(=O)[C@H](CC(=O)O)NC(=O)[C@H](CO)NC(=O)[C@@H](NC(=O)[C@H](Cc1ccccc1)NC(=O)[C@@H](NC(=O)CNC(=O)[C@H](CCC(=O)O)NC(=O)C(C)(C)NC(=O)[C@@H](N)Cc1ccc(O)cc1)[C@@H](C)O)[C@@H](C)O)C(=O)N[C@@H](Cc1ccc(O)cc1)C(=O)N[C@@H](CC(C)C)C(=O)N[C@@H](CCC(=O)O)C(=O)N[C@@H](CCCCN)C(=O)N[C@@H](CCCCN)C(=O)N[C@@H](C)C(=O)N[C@@H](C)C(=O)N[C@@H](Cc1c[nH]cn1)C(=O)N[C@@H](CC(=O)O)C(=O)N[C@@H](Cc1ccccc1)C(=O)N[C@H](C(=O)N[C@@H](CCC(=O)O)C(=O)N[C@@H](Cc1c[nH]c2ccccc12)C(=O)N[C@@H](CC(C)C)C(=O)N[C@@H](CC(C)C)C(=O)N[C@@H](CO)C(=O)N[C@@H](C)C(N)=O)C(C)C [Compound 38] (H-Y[Aib]EGTFTSDYSIYLEKKAAHDFVEWLLSA-NH2) | 0.018 | 0.007
6 | CCCCCCCCCCCCCCCC(=O)N[C@@H](CCC(=O)NCCCC[C@H](NC(=O)[C@H](CO)NC(=O)[C@H](CC(=O)O)NC(=O)[C@H](CC(C)C)NC(=O)[C@H](Cc1ccc(O)cc1)NC(=O)[C@@H](NC(=O)[C@H](CO)NC(=O)[C@H](Cc1ccc(O)cc1)NC(=O)[C@H](CC(=O)O)NC(=O)[C@H](CO)NC(=O)[C@@H](NC(=O)[C@H](Cc1ccccc1)NC(=O)[C@@H](NC(=O)CNC(=O)[C@H](CCC(=O)O)NC(=O)C(C)(C)NC(=O)[C@@H](N)Cc1ccc(O)cc1)[C@@H](C)O)[C@@H](C)O)[C@@H](C)CC)C(=O)N[C@@H](C)C(=O)N[C@@H](C)C(=O)N[C@@H](Cc1c[nH]cn1)C(=O)N[C@@H](CC(=O)O)C(=O)N[C@@H](Cc1ccccc1)C(=O)N[C@H](C(=O)N[C@@H](CCC(=O)O)C(=O)N[C@@H](Cc1c[nH]c2ccccc12)C(=O)N[C@@H](CC(C)C)C(=O)N[C@@H](CC(C)C)C(=O)N[C@@H](CCCNC(=N)N)C(=O)N[C@@H](C)C(N)=O)C(C)C)C(=O)O [Compound 47] (H-Y[Aib]EGTFTSDYSIYLDSK([γGlu-Palmitoyl])AAHDFVEWLLRA-NH2) | – | 0.096
7 | CCCCCCCCCCCCCCCC(=O)N[C@@H](CCC(=O)NCCCC[C@H](NC(=O)[C@H](CCC(=O)O)NC(=O)[C@H](CC(=O)O)NC(=O)[C@H](CC(C)C)NC(=O)[C@H](Cc1ccc(O)cc1)NC(=O)[C@@H](NC(=O)[C@H](CO)NC(=O)[C@H](Cc1ccc(O)cc1)NC(=O)[C@H](CC(=O)O)NC(=O)[C@H](CO)NC(=O)[C@@H](NC(=O)[C@H](Cc1ccccc1)NC(=O)[C@@H](NC(=O)CNC(=O)[C@H](CCC(=O)O)NC(=O)C(C)(C)NC(=O)[C@@H](N)Cc1ccc(O)cc1)[C@@H](C)O)[C@@H](C)O)[C@@H](C)CC)C(=O)N[C@@H](C)C(=O)N[C@@H](C)C(=O)N[C@@H](CCCCN)C(=O)N[C@@H](CC(=O)O)C(=O)N[C@@H](Cc1ccccc1)C(=O)N[C@H](C(=O)N[C@@H](CCC(=O)O)C(=O)N[C@@H](Cc1c[nH]c2ccccc12)C(=O)N[C@@H](CC(C)C)C(=O)N[C@@H](CCC(=O)O)C(=O)N[C@@H](CO)C(=O)N[C@@H](C)C(N)=O)[C@@H](C)CC)C(=O)O [Compound 50] (H-Y[Aib]EGTFTSDYSIYLDEK([γGlu-Palmitoyl])AAKDFIEWLESA-NH2) | – | 0.053
